Target: T1, Bcl-2 protein (Recombinant Human Bcl-2 Protein) (Homo sapiens, UniProt P10415)
T1 construct: purchased Novus Biologicals NBP2-34889
Test: AS-MS evaluation of binding of the Example 4 mixture library (1200 compounds/well) to Bcl-2, ASMS ratio (%)
Protocol: DMSO solutions (prepared into approximately 0.58 mM based on calculation from the average molecular weight of each mixture) of 12 types of mixtures that could each contain 100 compounds, i.e., mixAI-B4J-01, mixAI-B1M-01, mixAI-B1K-01, mixAI-BIO-01, mixAI-B1A-01, mixAI-B3A-01, mixAI-B21-01, mixAI-B2L-01, mixAI-B2N-01, mixAI-B2A-01, mixAI-B2Q-01, and mixAI-B2R-01, shown in Table AI-03-B4J-01, Table AI-03-B1M-01, Table AI-03-B1K-01, Table AI-03-B10-01, Table AI-03-B1A-01, Table AI-03-B3A-01, Table AI-03-B21-01, Table AI-03-B2L-01, Table AI-03-B2N-01, Table AI-03-B2A-01, Table AI-03-B2Q-01, and Table AI-03-B2R-01 described in Example 4, were respectively dispensed to a total of 12 wells of MICROPLATE, 96-well, PP, V-BOTTOM (Greiner Bio-One International GmbH, 651201). 70 nL each from the 12 wells was collected into any one well using LABCYTE ECHO® 555 acoustic dispensing system (Beckman Coulter, Inc.) to prepare a sample solution in a mixed state of 1200 compounds (the presence of 1152 compounds was already identified when the mixtures were prepared in Example 4). Further, Bcl-2 protein (Novus Biologicals, NBP2-34889, Recombinant Human Bcl-2 Protein, Lot E60145051) (19.2 μL) prepared at 20.9 μM in advance using a Tris-HCl buffer (25 mM Tris-HCl, pH 7.4, 150 mM NaCl, 0.025% Tween-20, and 1 mM DTT) was added to the well containing the dispensed 1200 compounds (the presence of 1152 compounds was already identified when the mixtures were prepared in Example 4) (final compound concentration: 20 nM, final Bcl-2 concentration: 20 μM), and the plate was incubated at 23° C. for 1 hour in the dark. Subsequently, 200 μL of an assay buffer (25 mM Tris-HCl, pH 7.4, 150 mM NaCl, 0.025% Tween-20, and 1 mM DTT) was centrifuged three times at 2000×G at 4° C. for 2 minutes using 96-well MacroSpin column, P-2 Material (Harvard Bioscience, Inc., 74-5655) that had been allowed to swell to condition the 96-well MacroSpin column. Subsequently, 20 μL of the sample thus incubated was added to the 96-well MacroSpin column, P-2 Material after the completion of conditioning, and SEC treatment was performed by centrifugation at 2000×G for 2 minutes. 32 μL of a 1:1 mixed solution of acetonitrile and methanol (LC/MS grade, FUJIFILM Wako Pure Chemical Corp.) was added to a flow-through liquid from SEC, and the mixture was centrifuged at 1800×G at 4° C. for 5 minutes. The supernatant was used as analysis sample ASMS (A). By a similar operation, a sample prepared at 1200 compounds/well and supplemented with only a Tris-HCl buffer containing no Bcl-2 protein was incubated under the same conditions as above, and the same organic solvent as above was added thereto without 96-well MacroSpin column treatment. A supernatant obtained by a centrifugation operation was used as STD (B). Next, by a similar operation, a sample prepared at 1200 compounds/well and supplemented with only a Tris-HCl buffer containing no Bcl-2 protein was incubated under the same conditions as above and treated with 96-well MacroSpin column in the same manner as above, and the same organic solvent as above was added thereto. A supernatant obtained by a centrifugation operation was used as BK (C). These samples were measured by reverse-phase LC/MS.
Then, the samples A, B and C were analyzed for the 1200 compounds using TraceFinder 5.1 (Thermo Fisher Scientific Inc.) and CHANCE Software (in-house), and an ASMS ratio (%) was calculated according to the following expression.
Although m/z of the MS peaks was confirmed down to four decimal places, 0 at the decimal level may be omitted in the description in Table AJ-01. For example, “587.0000” is also referred to as “587”, “587.1000” is also referred to as “587.1”, “587.1200” is also referred to as “587.12”, and “587.1230” is also referred to as “587.123”.

[1] = replicate n = 1, mixture library, value belongs to the MS peak assigned to the compound
[2] = replicate n = 2, mixture library, value belongs to the MS peak assigned to the compound
[3] = AS-MS, Example 4 mixture library, Bcl-2, replicate n = 1
[4] = AS-MS, Example 4 mixture library, Bcl-2, replicate n = 2

T1 sequence (P10415 whole entry): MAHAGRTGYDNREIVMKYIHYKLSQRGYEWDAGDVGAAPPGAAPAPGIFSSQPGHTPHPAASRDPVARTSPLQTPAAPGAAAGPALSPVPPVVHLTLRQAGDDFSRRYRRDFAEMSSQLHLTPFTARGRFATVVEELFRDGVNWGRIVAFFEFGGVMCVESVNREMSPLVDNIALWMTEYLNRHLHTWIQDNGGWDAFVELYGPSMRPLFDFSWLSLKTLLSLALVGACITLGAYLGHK

Structure (SMILES)	ASMS ratio (%) n = 1 [1] [%]	ASMS ratio (%) n = 2 [2] [%]	ASMS ratio (%) n = 1 [3] [%]	ASMS ratio (%) n = 2 [4] [%]
CCOc1cccc(-c2ccccc2CCC(=O)N2CCN(c3ccc(C(=O)NS(=O)(=O)CCC(F)(F)F)nn3)CC2)c1 [Compound B2N011-01, 6-[4-[3-[2-(3-Ethoxyphenyl)phenyl]propanoyl]piperazin-1-yl]-N-(3,3,3-trifluoropropylsulfonyl)pyridazine-3-carboxamide]			0.0	0.0
CCOc1cccc(-c2ccc(C(C)N3CCN(c4ccc(C(=O)NS(=O)(=O)c5ccc(NCCSc6ccccc6)c(C(F)(F)F)c5)cc4)CC3)c(F)c2)c1 (stereo not drawn) [Compound B2R099-01, 4-[4-[1-[4-(3-Ethoxyphenyl)-2-fluorophenyl]ethyl]piperazin-1-yl]-N-[4-(2-phenylsulfanylethylamino)-3-(trifluoromethyl)phenyl]sulfonylbenzamide]			−12.6	−7.5
CCOc1cccc(-c2cc(CN3CCN(c4ccc(C(=O)NS(=O)(=O)c5ccc(NCCSc6ccccc6)c(C(F)(F)F)c5)cc4)CC3)cc(OCC)c2)c1 [Compound B2R055-01, 4-[4-[[3-Ethoxy-5-(3-ethoxyphenyl)phenyl]methyl]piperazin-1-yl]-N-[4-(2-phenylsulfanylethylamino)-3-(trifluoromethyl)phenyl]sulfonylbenzamide]			−3.3	6.3
CCOc1cncc(-c2ccccc2CCC(=O)N2CCN(c3ccc(C(=O)NS(=O)(=O)c4ccc(NCCSc5ccccc5)c(C(F)(F)F)c4)nn3)CC2)c1 [Compound B2R012-01, 6-[4-[3-[2-(5-Ethoxypyridin-3-yl)phenyl]propanoyl]piperazin-1-yl]-N-[4-(2-phenylsulfanylethylamino)-3-(trifluoromethyl)phenyl]sulfonylpyridazine-3-carboxamide]			15.8	13.5
CCOc1cccc(-c2ccccc2CN2CCN(c3ccc(C(=O)NS(=O)(=O)c4ccc(NCCSc5ccccc5)c(C(F)(F)F)c4)cc3)CC2)c1 [Compound B2R045-01, 4-[4-[[2-(3-Ethoxyphenyl)phenyl]methyl]piperazin-1-yl]-N-[4-(2-phenylsulfanylethylamino)-3-(trifluoromethyl)phenyl]sulfonylbenzamide]			4.8	−3.4
CCOc1cccc(-c2ccc(CN3CCN(c4ccc(C(=O)NS(=O)(=O)c5ccc(NCCSc6ccccc6)c(C(F)(F)F)c5)cc4)CC3)c3ccccc23)c1 [Compound B2R065-01, 4-[4-[[4-(3-Ethoxyphenyl)naphthalen-1-yl]methyl]piperazin-1-yl]-N-[4-(2-phenylsulfanylethylamino)-3-(trifluoromethyl)phenyl]sulfonylbenzamide]			3.8	0.3
CCOc1cncc(-c2cc(C(=O)N3CCN(c4ccc(C(=O)NS(=O)(=O)c5ccc(NCCSc6ccccc6)c(C(F)(F)F)c5)nn4)CC3)cc(C(C)(C)C)c2)c1 [Compound B2R016-01, 6-[4-[3-tert-Butyl-5-(5-ethoxypyridin-3-yl)benzoyl]piperazin-1-yl]-N-[4-(2-phenylsulfanylethylamino)-3-(trifluoromethyl)phenyl]sulfonylpyridazine-3-carboxamide]			9.1	2.7
CCOc1cccc(-c2csc(CN3CCN(c4ccc(C(=O)NS(=O)(=O)CCC(F)(F)F)nn4)CC3)c2)c1 [Compound B2N093-01]			0.0	
CCOc1cncc(-c2cc(CN3CCN(c4ccc(C(=O)NS(=O)(=O)c5ccc(NCCSc6ccccc6)c(C(F)(F)F)c5)nn4)CC3)cc(OCC)c2)c1 [Compound B2R082-01]			0.0	0.0
CCOc1cccc(-c2csc(C(=O)N3CCN(c4ccc(C(=O)NS(=O)(=O)CCC(F)(F)F)nn4)CC3)c2)c1 [Compound B2N001-01, 6-[4-[4-(3-Ethoxyphenyl)thiophene-2-carbonyl]piperazin-1-yl]-N-(3,3,3-trifluoropropylsulfonyl)pyridazine-3-carboxamide]				0.0

The remaining lines, values ahead:

ASMS ratio (%) n = 1 [1] [%]	ASMS ratio (%) n = 2 [2] [%]	ASMS ratio (%) n = 1 [3] [%]	ASMS ratio (%) n = 2 [4] [%]	Structure (SMILES)
0.0				CCOc1cccc(C#Cc2cc(C(=O)N3CCN(c4ccc(C(=O)NS(=O)(=O)C(C)(C)C)cc4)CC3)cc(C(F)(F)F)c2)c1 [Compound B2L041-01, N-tert-Butylsulfonyl-4-[4-[3-[2-(3-ethoxyphenyl)ethynyl]-5-(trifluoromethyl)benzoyl]piperazin-1-yl]benzamide]
0.0	−1.0			CCOc1cncc(C#Cc2cncc(C(=O)N3CCN(c4ccc(C(=O)NS(=O)(=O)C(C)(C)C)cc4)CC3)c2)c1 [Compound B2L032-01, N-tert-Butylsulfonyl-4-[4-[5-[2-(5-ethoxypyridin-3-yl)ethynyl]pyridine-3-carbonyl]piperazin-1-yl]benzamide]
0.0	0.0			CCOc1cccc(-c2ccc(CN3CCN(c4ccc(C(=O)NS(=O)(=O)C(C)(C)C)cc4)CC3)cc2C)c1 [Compound B2L047-01, N-tert-Butylsulfonyl-4-[4-[[4-(3-ethoxyphenyl)-3-methylphenyl]methyl]piperazin-1-yl]benzamide]
0.3	0.5			CCOc1cncc(-c2ccc(C(=O)N3CCN(c4ccc(C(=O)NS(=O)(=O)C(C)(C)C)nn4)CC3)c3ccccc23)c1 [Compound B2L014-01, N-tert-Butylsulfonyl-6-[4-[4-(5-ethoxypyridin-3-yl)naphthalene-1-carbonyl]piperazin-1-yl]pyridazine-3-carboxamide]
0.0	0.0			CCOc1cccc(-c2cc(C(=O)N3CCN(c4ccc(C(=O)NS(=O)(=O)C(C)(C)C)cc4)CC3)cc(C(F)(F)F)c2)c1 [Compound B2L039-01, N-tert-Butylsulfonyl-4-[4-[3-(3-ethoxyphenyl)-5-(trifluoromethyl)benzoyl]piperazin-1-yl]benzamide]
0.0	0.0			CCOc1cncc(-c2ccc(CN3CCN(c4ccc(C(=O)NS(C)(=O)=O)cc4)CC3)cc2C)c1 [Compound B2I048-01, 4-[4-[[4-(5-Ethoxypyridin-3-yl)-3-methylphenyl]methyl]piperazin-1-yl]-N-methylsulfonylbenzamide]
		0.0	0.0	CCOc1cncc(-c2cc(OC)c(CN3CCN(c4ccc(C(=O)NS(=O)(=O)CCC(F)(F)F)nn4)CC3)c(OC)c2)c1 [Compound B2N086-01, 6-[4-[[4-(5-Ethoxypyridin-3-yl)-2,6-dimethoxyphenyl]methyl]piperazin-1-yl]-N-(3,3,3-trifluoropropylsulfonyl)pyridazine-3-carboxamide]
0.0	0.0			CCOc1cncc(-c2ccc(CN3CCN(c4ccc(C(=O)NS(=O)(=O)C(C)(C)C)cc4)CC3)c3ccccc23)c1 [Compound B2L066-01, N-tert-Butylsulfonyl-4-[4-[[4-(5-ethoxypyridin-3-yl)naphthalen-1-yl]methyl]piperazin-1-yl]benzamide]

Reference: US20250154686A1, “COMPOUND LIBRARY” (CHUGAI SEIYAKU KABUSHIKI KAISHA, priority 2021, published 2025)
